# Legend:
# [1] = Light fastness test of inkjet-printed images, xenon weatherometer (coloring matter residual rate); format: physicochemical; conditions: for Light fastness: 96 hours, illuminance 100,000 lux, 60% RH, 24° C.; for coloring matter residual rate, light fastness test: 96 hours xenon
# Procedure: (§1) The components described below were mixed to obtain a black ink composition of the present invention, and then foreign substances were filtered off using a 0.45 μm membrane filter. Hereinafter, the obtained ink composition was referred to as “ink”.
# (§2) In addition, ion-exchanged water was used as water. In ink preparation, the pH of ink was adjusted to pH 7 to 9 with sodium hydroxide and after that, ion-exchanged water was added to make the total amount 100 parts.
# (§3) Using each ink obtained in the above manner, inkjet printing was performed on three kinds of information recording sheet (inkjet special paper), glossy paper 1 [trade name: Professional Photopaper PR-101, manufactured by Canon Inc.], glossy paper 2 [trade name: Photo Paper CRISPIA (highly glossy), manufactured by Seiko-Epson Corporation], glossy paper 3 [trade name: Advanced Photo Paper (glossy), manufactured by Hewlett-Packard Development Company] by an inkjet printer (trade name: PIXUS® iP4100) manufactured by Canon Inc.
# (§4) In printing, an image pattern was made so that several gradations in reflection density were obtained, and black printed matter was obtained.
# (§5) Using a colorimeter (trade name: SpectroEye®) manufactured by GRETAG-MACBETH, change in printed image density was measured by measuring, after the test, the gradation part where the reflection density, D value, was nearest to 1.0 on each printed image before the test.
# Using a low temperature xenon weatherometer (trade name: XL75) manufactured by Suga Test Instruments Co., Ltd., each printed image described above was irradiated for 96 hours under the conditions of a luxilluminance of 100,000, a humidity of 60% RH and a temperature of 24° C. and then measured using the above colorimeter, and the coloring matter residual rate of each image was calculated from the formula (reflection density after test/reflection density before test)×100 (%). The test results are evaluated according to the following criteria. • ◯: Residual rate is 85% or more. • Δ: Residual rate is 80% or more and less than 85%. • ×: Residual rate is less than 80%.
# [2] = Ozone gas fastness test of inkjet-printed images (coloring matter residual rate); format: physicochemical; conditions: 24 hours, ozone 10 ppm; for Ozone gas fastness: 60% RH, 24° C.
# Procedure: as §1, §2, §3, §4, §5
# Using an ozone weatherometer manufactured by Suga Test Instruments Co., Ltd., each printed image was left for 24 hours under the conditions of an ozone concentration of 10 ppm, a humidity of 60% RH and a temperature of 24° C. After completion of the test, each printed image was measured by the above colorimeter and the coloring matter residual rate was calculated from the formula (reflection density after test/reflection density before test)×100 (%). The test results are evaluated according to the following criteria. • ◯: Residual rate is 70% or more. • Δ: Residual rate is 60% or more and less than 70%. • ×: Residual rate is less than 60%. 2) Light Fastness Test
# [3] = Glossy paper 3 (Advanced Photo Paper, Hewlett-Packard)
# [4] = Glossy paper 1 (Professional Photopaper PR-101, Canon)
# [5] = Glossy paper 2 (Photo Paper CRISPIA, Seiko-Epson)
"Light fastness [1, 3]","coloring matter residual rate, light fastness test ([1]; glossy paper 1)","coloring matter residual rate, light fastness test ([1]; glossy paper 2)","coloring matter residual rate, ozone gas fastness test ([2]; on any glossy paper (1, 2, 3))","Light fastness [1, 4]","Light fastness [1, 5]","Ozone gas fastness [2, 4]","Ozone gas fastness [2, 5]","Ozone gas fastness [2, 3]",SMILES
◯ (Residual rate is 85% or more.),–,–,–,◯ (Residual rate is 85% or more.),◯ (Residual rate is 85% or more.),◯ (Residual rate is 70% or more.),◯ (Residual rate is 70% or more.),◯ (Residual rate is 70% or more.),CS(=O)(=O)O.Cc1cc(N=Nc2c(S(=O)(=O)O)cc3c(S(=O)(=O)O)c(N=Nc4c(C)c(C#N)c5nc6ccccc6n5c4O)ccc3c2O)c(OCCCS(=O)(=O)O)cc1N=Nc1nc2c(S(=O)(=O)O)cc(S(C)(=O)=O)cc2s1 [Example 14]

SMILES,"Light fastness [1, 3]","coloring matter residual rate, light fastness test ([1]; glossy paper 1)","coloring matter residual rate, light fastness test ([1]; glossy paper 2)","coloring matter residual rate, ozone gas fastness test ([2]; on any glossy paper (1, 2, 3))","Light fastness [1, 4]","Light fastness [1, 5]","Ozone gas fastness [2, 4]","Ozone gas fastness [2, 5]","Ozone gas fastness [2, 3]"
"O=C(O)c1cc(S(=O)(=O)O)ccc1N=Nc1cc(OCCO)c(N=Nc2c(S(=O)(=O)O)cc3c(S(=O)(=O)O)c(N=Nc4c(C(=O)O)nn(-c5ccc(S(=O)(=O)O)cc5)c4O)ccc3c2O)cc1OCCO [Comparative Example 1, reference compound]",Δ (Residual rate is 80% or more and less than 85%.),less than 80%,less than 80%,less than 60%,–,–,–,–,–
CS(=O)(=O)O.Cc1cc(N=Nc2c(S(=O)(=O)O)cc3c(S(=O)(=O)O)c(N=Nc4c(C)c(C#N)c5nc6ccccc6n5c4O)ccc3c2O)c(OCCCS(=O)(=O)O)cc1N=Nc1nnc(SCCS(=O)(=O)O)s1 [Example 10],◯ (Residual rate is 85% or more.),–,–,–,◯ (Residual rate is 85% or more.),Δ (Residual rate is 80% or more and less than 85%.),◯ (Residual rate is 70% or more.),◯ (Residual rate is 70% or more.),◯ (Residual rate is 70% or more.)
CS(=O)(=O)O.Cc1cc(N=Nc2c(S(=O)(=O)O)cc3c(S(=O)(=O)O)c(N=Nc4c(C)c(C#N)c5nc6ccccc6n5c4O)ccc3c2O)c(OCCCS(=O)(=O)O)cc1N=Nc1nc2c(S(=O)(=O)O)cc(S(=O)(=O)O)cc2s1 [Example 13],◯ (Residual rate is 85% or more.),–,–,–,Δ (Residual rate is 80% or more and less than 85%.),◯ (Residual rate is 85% or more.),◯ (Residual rate is 70% or more.),◯ (Residual rate is 70% or more.),◯ (Residual rate is 70% or more.)

# Reference: patent publication US7901498B2, “Trisazo compound, ink composition, printing method and colored product” (Nippon Kayaku Kabushiki Kaisha, priority 2007, dated 2011)
